“And” between values parts separate entries of the source, which are not always exact repeats. Equal entries are not always repeated.
Legend:
Assay in all cases: greenhouse pre-emergence herbicidal test
Format in all cases: in vivo
[1] = tested on: Amaranthus retroflexus
Description: (§1) The seeds of the test plants were sown separately for each species. For the pre-emergence treatment, the active ingredients, which had been suspended or emulsified in water, were applied directly after sowing by means of finely distributing nozzles. The containers were irrigated gently to promote germination and growth and subsequently covered with transparent plastic hoods until the plants had rooted. This cover caused uniform germination of the test plants, unless this had been impaired by the active ingredients. […] The test period extended over 2 to 4 weeks. During this time, the plants were tended, and their response to the individual treatments was evaluated. Evaluation was carried out using a scale from 0 to 100. 100 means no emergence of the plants, or complete destruction of at least the aerial moieties, and 0 means no damage, or normal course of growth. A moderate herbicidal activity is given at values of at least 60, a good herbicidal activity is given at values of at least 70, and a very good herbicidal activity is given at values of at least 85. The plants used in the greenhouse experiments were of the following species: [table]

[2] = tested on: Echinocloa crus-galli
Description: as §1

[3] = tested on: Setaria faberi
Description: as §1

[4] = tested on: Apera spica-venti
Description: (§2) The culture containers used were plastic flowerpots containing loamy sand with approximately 3.0% of humus as the substrate. The seeds of the test plants were sown separately for each species.
(§3) For the pre-emergence treatment, the active ingredients, which had been suspended or emulsified in water, were applied directly after sowing by means of finely distributing nozzles.
(§4) The containers were irrigated gently to promote germination and growth and subsequently covered with transparent plastic hoods until the plants had rooted. This cover caused uniform germination of the test plants, unless this had been impaired by the active ingredients.
(§5) Depending on the species, the plants were kept at 10-25° C. or 20-35° C., respectively.
(§6) The test period extended over 2 to 4 weeks. During this time, the plants were tended, and their response to the individual treatments was evaluated.
(§7) Evaluation was carried out using a scale from 0 to 100. 100 means no emergence of the plants, or complete destruction of at least the aerial moieties, and 0 means no damage, or normal course of growth. A moderate herbicidal activity is given at values of at least 60, a good herbicidal activity is given at values of at least 70, and a very good herbicidal activity is given at values of at least 85.
(§8) The plants used in the greenhouse experiments were of the following species: […]

[5] = tested on: Abutilon theophrasti
Description: as §2, §3, §4, §5, §6, §7, §8

[6] = tested on: Lolium multiflorum
Description: as §2, §3, §4, §5, §6, §7, §8

[7] = tested on: Digitaria sanguinalis
Description: as §2, §3, §4, §5, §6, §7, §8

[8] = tested on: Alopercurus myosuroides
Description: as §2, §3, §4, §5, §6, §7, §8

CCOc1c(F)cc(F)c(Cl)c1Nc1nc(N)nc(C(C)(C)F)n1 [Example 24]
herbicidal activity ([1]; 31 g/ha): 100% | herbicidal activity ([1]; 62.5 g/ha): 100% | herbicidal activity ([2]; 62.5 g/ha): 100% | herbicidal activity ([3]; 62.5 g/ha): 100% | herbicidal activity ([4]; 31 g/ha): 100%

C#CCOc1c(Br)cc(F)c(Cl)c1Nc1nc(N)nc(C(C)(C)F)n1 [Example 31]
herbicidal activity ([1]; 250 g/ha): 100% | herbicidal activity ([2]; 250 g/ha): 100% | herbicidal activity ([3]; 31 g/ha): 100% | herbicidal activity ([5]; 31 g/ha): 100% | herbicidal activity ([5]; 250 g/ha): 100% | herbicidal activity ([4]; 31 g/ha): 100%

COc1c(Cl)cc(Cl)c(C)c1Nc1nc(N)nc(C2(F)CCCC2)n1 [Example 36]
herbicidal activity ([1]; 62.5 g/ha): 100% | herbicidal activity ([2]; 62.5 g/ha): 100% | herbicidal activity ([2]; 125 g/ha): 85% | herbicidal activity ([3]; 125 g/ha): 90% | herbicidal activity ([5]; 62.5 g/ha): 100% | herbicidal activity ([4]; 125 g/ha): 100%

COc1c(Cl)cc(Cl)c(C)c1Nc1nc(N)nc(C(C)(C)OC)n1 [Example 37]
herbicidal activity ([1]; 62.5 g/ha): 100% | herbicidal activity ([2]; 62.5 g/ha): 100% | herbicidal activity ([3]; 125 g/ha): 85% | herbicidal activity ([5]; 62.5 g/ha): 98% | herbicidal activity ([5]; 125 g/ha): 85% | herbicidal activity ([4]; 125 g/ha): 100%

COc1c(Br)cc(C)c(C)c1Nc1nc(N)nc(C(C)(C)OC)n1 [Example 48]
herbicidal activity ([1]; 31 g/ha): 100% | herbicidal activity ([2]; 31 g/ha): 70% | herbicidal activity ([2]; 62 g/ha): 90% | herbicidal activity ([3]; 31 g/ha): 100% | herbicidal activity ([3]; 62 g/ha): 80% | herbicidal activity ([6]; 62 g/ha): 98%

COc1c(Br)cc(C)c(C)c1Nc1nc(N)nc(C(C)(C)F)n1 [Example 45]
herbicidal activity ([1]; 62.5 g/ha): 100% | herbicidal activity ([2]; 62.5 g/ha): 100% | herbicidal activity ([3]; 62 g/ha): 100% | herbicidal activity ([3]; 62.5 g/ha): 100% | herbicidal activity ([5]; 62 g/ha): 100% | herbicidal activity ([6]; 62 g/ha): 100%

COc1c(Cl)cc(Cl)c(C)c1Nc1nc(N)nc(C(C)F)n1 (stereo not drawn) [Example 35]
herbicidal activity ([1]; 62.5 g/ha): 100% | herbicidal activity ([1]; 125 g/ha): 100% | herbicidal activity ([2]; 62.5 g/ha): 100% | herbicidal activity ([5]; 62.5 g/ha): 100% | herbicidal activity ([5]; 125 g/ha): 95% | herbicidal activity ([4]; 125 g/ha): 100%

COc1c(F)cc(Cl)c(C)c1Nc1nc(N)nc(C(C)(C)F)n1 [Example 7]
herbicidal activity ([1]; 32 g/ha): 100% | herbicidal activity ([2]; 125 g/ha): 100% | herbicidal activity ([3]; 125 g/ha): 100% | herbicidal activity ([5]; 32 g/ha): 100% | herbicidal activity ([5]; 125 g/ha): 100% | herbicidal activity ([7]; 32 g/ha): 100%

COc1c(Br)cc(C)c(C)c1Nc1nc(N)nc(C2(F)CCCC2)n1 [Example 47]
herbicidal activity ([1]; 62.5 g/ha): 100% | herbicidal activity ([2]; 62.5 g/ha): 100% | herbicidal activity ([3]; 62 g/ha): 90% | herbicidal activity ([3]; 62.5 g/ha): 100% | herbicidal activity ([6]; 62 g/ha): 80%

COc1c(F)ccc(Br)c1Nc1nc(N)nc(C(C)(C)F)n1 [Example 3, N4-(6-bromo-3-fluoro-2-methoxy-phenyl)-6-(1-fluoro-1-methyl-ethyl)-1,3,5-triazine-2,4-diamine]
herbicidal activity ([1]; 250 g/ha): 100% | herbicidal activity ([2]; 62.5 g/ha): 100% | herbicidal activity ([3]; 250 g/ha): 100% | herbicidal activity ([5]; 62.5 g/ha): 100% | herbicidal activity ([5]; 250 g/ha): 100% | herbicidal activity ([7]; 62.5 g/ha): 100%

COc1c(Cl)cc(Cl)c(Cl)c1Nc1nc(N)nc(C(C)(C)F)n1 [Example 2]
herbicidal activity ([1]; 250 g/ha): 100% | herbicidal activity ([2]; 62.5 g/ha): 100% | herbicidal activity ([2]; 250 g/ha): 100% | herbicidal activity ([3]; 250 g/ha): 100% | herbicidal activity ([5]; 62.5 g/ha): 100% | herbicidal activity ([7]; 62.5 g/ha): 100%

COc1c(F)cc(Br)c(C)c1Nc1nc(N)nc(C(C)(C)F)n1 [Example 5]
herbicidal activity ([1]; 250 g/ha): 100% | herbicidal activity ([2]; 250 g/ha): 100% and 85% | herbicidal activity ([3]; 250 g/ha): 100% | herbicidal activity ([5]; 250 g/ha): 90% | herbicidal activity ([7]; 250 g/ha): 100%

COc1c(F)cc(F)c(C)c1Nc1nc(N)nc(C(C)(C)F)n1 [Example 8]
herbicidal activity ([1]; 32 g/ha): 100% | herbicidal activity ([2]; 125 g/ha): 100% | herbicidal activity ([3]; 125 g/ha): 100% | herbicidal activity ([5]; 32 g/ha): 100% | herbicidal activity ([5]; 125 g/ha): 100% | herbicidal activity ([7]; 32 g/ha): 100%

C#CCOc1c(Cl)cc(C)c(Cl)c1Nc1nc(N)nc(C(C)(C)F)n1 [Example 64]
herbicidal activity ([2]; 62 g/ha): 100% | herbicidal activity ([3]; 62 g/ha): 100% | herbicidal activity ([5]; 62 g/ha): 100% | herbicidal activity ([6]; 62 g/ha): 98%

CC(C)(F)c1nc(N)nc(Nc2c(Cl)ccc(F)c2OCC#CC2CC2)n1 [Example 52]
herbicidal activity ([1]; 62 g/ha): 100% | herbicidal activity ([2]; 62 g/ha): 100% | herbicidal activity ([2]; 62.5 g/ha): 100% | herbicidal activity ([3]; 62.5 g/ha): 100% | herbicidal activity ([5]; 62 g/ha): 100% | herbicidal activity ([4]; 62.5 g/ha): 100%

CCC(C)(F)c1nc(N)nc(Nc2c(C)c(Cl)cc(Cl)c2OC)n1 (racemic) [Example 102]
herbicidal activity ([3]; 62.5 g/ha): 80% | herbicidal activity ([8]; 62.5 g/ha): 85% | herbicidal activity ([6]; 62.5 g/ha): 90%

COc1c(Cl)cc(F)c(Cl)c1Nc1nc(N)nc(C(C)(C)F)n1 [Example 10]
herbicidal activity ([1]; 32 g/ha): 100% | herbicidal activity ([1]; 250 g/ha): 100% | herbicidal activity ([3]; 250 g/ha): 100% | herbicidal activity ([5]; 32 g/ha): 100% | herbicidal activity ([5]; 250 g/ha): 100% | herbicidal activity ([7]; 32 g/ha): 100%

COc1c(Cl)cc(F)c(Br)c1Nc1nc(N)nc(C(C)(C)F)n1 [Example 11]
herbicidal activity ([1]; 32 g/ha): 100% | herbicidal activity ([2]; 250 g/ha): 100% | herbicidal activity ([3]; 250 g/ha): 100% | herbicidal activity ([5]; 32 g/ha): 100% | herbicidal activity ([8]; 250 g/ha): 100% | herbicidal activity ([7]; 32 g/ha): 100%

COc1c(Cl)cc(Cl)c(C)c1Nc1nc(N)nc(C(C)(F)CCl)n1 (racemic) [Example 104]
herbicidal activity ([3]; 62.5 g/ha): 85% | herbicidal activity ([8]; 62.5 g/ha): 90% | herbicidal activity ([6]; 62.5 g/ha): 100%

COc1c(Cl)cc(Br)c(C)c1Nc1nc(N)nc(C(C)(C)F)n1 [Example 60]
herbicidal activity ([1]; 31 g/ha): 100% | herbicidal activity ([1]; 62 g/ha): 100% | herbicidal activity ([3]; 31 g/ha): 98% | herbicidal activity ([3]; 62 g/ha): 100% | herbicidal activity ([5]; 62 g/ha): 100% | herbicidal activity ([4]; 31 g/ha): 95%

CCOc1c(Br)cc(F)c(Cl)c1Nc1nc(N)nc(C(C)(C)F)n1 [Example 30]
herbicidal activity ([1]; 31 g/ha): 85% | herbicidal activity ([3]; 31 g/ha): 100% | herbicidal activity ([5]; 31 g/ha): 100% | herbicidal activity ([8]; 31 g/ha): 100% | herbicidal activity ([4]; 31 g/ha): 85%

COc1c(Cl)cc(F)c(C)c1Nc1nc(N)nc(C2(F)CC2)n1 [Example 92]
herbicidal activity ([1]; 62 g/ha): 100% | herbicidal activity ([2]; 62 g/ha): 100% | herbicidal activity ([2]; 62.5 g/ha): 100% | herbicidal activity ([3]; 62 g/ha): 100% | herbicidal activity ([5]; 62.5 g/ha): 100% | herbicidal activity ([8]; 62.5 g/ha): 100%

COc1c(Br)ccc(Cl)c1Nc1nc(N)nc(C(C)(C)F)n1 [Example 4]
herbicidal activity ([1]; 250 g/ha): 100% | herbicidal activity ([2]; 62.5 g/ha): 100% | herbicidal activity ([2]; 250 g/ha): 100% | herbicidal activity ([3]; 250 g/ha): 100% | herbicidal activity ([5]; 62.5 g/ha): 100% | herbicidal activity ([7]; 62.5 g/ha): 100%

COc1c(C)ccc(C)c1Nc1nc(N)nc(C(C)(C)F)n1 [Example 14]
herbicidal activity ([1]; 62 g/ha): 100% | herbicidal activity ([2]; 62 g/ha): 100% | herbicidal activity ([2]; 125 g/ha): 98% | herbicidal activity ([3]; 125 g/ha): 100% | herbicidal activity ([5]; 62 g/ha): 100% | herbicidal activity ([8]; 125 g/ha): 98%

COc1c(Cl)cc(C)c(C)c1Nc1nc(N)nc(C(C)(C)F)n1 [Example 15]
herbicidal activity ([2]; 125 g/ha): 100% | herbicidal activity ([3]; 31 g/ha): 90% | herbicidal activity ([3]; 125 g/ha): 100% | herbicidal activity ([8]; 31 g/ha): 95% | herbicidal activity ([8]; 125 g/ha): 100% | herbicidal activity ([6]; 31 g/ha): 95%

COc1c(Br)cc(C)c(C)c1Nc1nc(N)nc(C(C)F)n1 (stereo not drawn) [Example 46]
herbicidal activity ([1]; 62 g/ha): 100% | herbicidal activity ([1]; 62.5 g/ha): 100% | herbicidal activity ([2]; 62.5 g/ha): 100% | herbicidal activity ([3]; 62 g/ha): 100% | herbicidal activity ([3]; 62.5 g/ha): 100% | herbicidal activity ([6]; 62 g/ha): 80%

— patent US20240150303A1, “DIAMINOTRIAZINE COMPOUNDS” (BASF SE, priority 2021, published 2024)
